Reference: PMC10321483 (Chemical Science, 2023)
Where “and” joins values, the source holds several entries; their conditions need not be identical. Equal values may be shown once.

system: not listed separately; assay: Intrinsic thiol reactivity (kchem), competition with probe 2 for L-glutathione; assay type: physicochemical; conditions: Table S5; L-glutathione 500 nM, probe 2 10 µM, 15 h

SMILES	kchem (apparent intrinsic thiol reactivity) [M⁻¹ s⁻¹]
COc1ccc(CN2C(=O)C(=O)c3cc(Br)cc(C)c32)cc1OC [Compound 17]	< 0.08
CCOc1ccc(CN2C(=O)C(=O)c3cc(Br)cc(C)c32)cc1OC [Compound 16]	< 0.08

same assay, conditions: Table S10 known cyanating compounds; unit printed in b38 only

SMILES	kchem (apparent intrinsic thiol reactivity)
N#Cn1cnc2ccccc21 [Compound 40]	0.90 ± 0.05 M⁻¹ s⁻¹ and 0.90 M⁻¹ s⁻¹

same assay, conditions: Table S11 assay validation

SMILES	log(kchem) probe 2 (mean ± SD)
CCOc1ccc(C(=O)C=CC(=O)O)cc1OCC [i]	0.65 ± 0.06
Cc1ccc(C(=O)C=CC(=O)O)cc1C [ii]	0.76 ± 0.03
O=C(O)C=CC(=O)c1ccc(Br)cc1 [iii]	0.93 ± 0.02

system: not given; assay: not given; parameters: method as in earlier work; conditions: Table S11; reported values; ref 6 (Sameshima et al., 2017); cited from earlier work

SMILES	log(kchem) o-maleimide BODIPY (mean ± SD)
CCOc1ccc(C(=O)C=CC(=O)O)cc1OCC [i]	0.86 ± 0.09
Cc1ccc(C(=O)C=CC(=O)O)cc1C [ii]	1.07 ± 0.09
O=C(O)C=CC(=O)c1ccc(Br)cc1 [iii]	1.34 ± 0.10

target: T1, LdtMt2 (Mycobacterium tuberculosis, UniProt I6Y9J2); assay: biochemical; assay type: biochemical; parameters: made in house; host or cells: E. coli; conditions: not given
T1 sequence (I6Y9J2 56-408): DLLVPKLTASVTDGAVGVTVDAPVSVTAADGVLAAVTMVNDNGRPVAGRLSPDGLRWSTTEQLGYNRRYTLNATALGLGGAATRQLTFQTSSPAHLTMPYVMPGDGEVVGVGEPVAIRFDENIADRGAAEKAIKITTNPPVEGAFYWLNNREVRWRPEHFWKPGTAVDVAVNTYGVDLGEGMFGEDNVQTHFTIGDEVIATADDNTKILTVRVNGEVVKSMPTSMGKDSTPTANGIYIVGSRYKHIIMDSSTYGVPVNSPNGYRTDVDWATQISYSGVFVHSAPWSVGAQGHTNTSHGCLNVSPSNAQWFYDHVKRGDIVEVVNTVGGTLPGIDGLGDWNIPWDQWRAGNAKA

SMILES	LE (ligand efficiency)	pIC50 LdtMt2	pIC50, 0 min	pIC50, 10 min	pIC50, 60 min	pIC50, 120 min
CC(N)C(=O)NC1CCN(c2ccc(N3CCCC3)cc2C#N)C1 (stereo not shown) [Compound 39]	0.47					
N#Cn1cnc2ccccc21 [Compound 40]		6.31 ± 0.03				
COc1ccc(CN2C(=O)C(=O)c3cc(Br)cc(C)c32)cc1OC [Compound 17]	0.47		6.48 ± 0.14	6.33 ± 0.14	6.28 ± 0.45	6.45 ± 0.26
NC(=O)OCC1=C(C(=O)O)N2C(=O)C(NC(=O)C(=CS(=O)(=O)CCc3ccc(O)c(O)c3)c3csc(N)n3)C2SC1 (stereo not shown) [Compound 20]	0.28					

same assay, conditions: Table S5; for LdtMt2

SMILES	LE (ligand efficiency)
O=c1c2cc(Cl)c(Cl)cc2sn1CCO [Compound 15]	0.74
CCOc1ccc(CN2C(=O)C(=O)c3cc(Br)cc(C)c32)cc1OC [Compound 16]	0.45

same assay, conditions: Table S5 HTS hits; 30 minute inhibitor pre-incubation; two independent repeats; read-out: pIC50 LdtMt2 (converted)

SMILES	IC50 [nM]
O=c1c2cc(Cl)c(Cl)cc2sn1CCO [Compound 15]	10.2
CCOc1ccc(CN2C(=O)C(=O)c3cc(Br)cc(C)c32)cc1OC [Compound 16]	178

same assay, conditions: Table S8; inhibitor pre-incubation time 0 min; read-out: pIC50, 0 min (converted)

SMILES	IC50 [nM]
CCOc1ccc(CN2C(=O)C(=O)c3cc(Br)cc(C)c32)cc1OC [Compound 16]	302

same assay, conditions: Table S8; inhibitor pre-incubation time 120 min; read-out: pIC50, 120 min (converted)

SMILES	IC50 [nM]
CCOc1ccc(CN2C(=O)C(=O)c3cc(Br)cc(C)c32)cc1OC [Compound 16]	407

same assay, conditions: pIC50, 10 min, Table S8; inhibitor pre-incubation time 10 min

SMILES	IC50 [nM]
CCOc1ccc(CN2C(=O)C(=O)c3cc(Br)cc(C)c32)cc1OC [Compound 16]	363

same assay, conditions: pIC50, 60 min, Table S8; inhibitor pre-incubation time 60 min

SMILES	IC50 [nM]
CCOc1ccc(CN2C(=O)C(=O)c3cc(Br)cc(C)c32)cc1OC [Compound 16]	372

target: T2, BlaC (Mycobacterium tuberculosis, UniProt P9WKD3); assay: BlaC fluorogenic inhibition assay with FC5 (dose-response); assay type: biochemical; conditions: Table S5 HTS hits; 30 minute inhibitor pre-incubation; two independent repeats
T2 construct: made in house; host or cells: E. coli
T2 sequence (P9WKD3 35-307): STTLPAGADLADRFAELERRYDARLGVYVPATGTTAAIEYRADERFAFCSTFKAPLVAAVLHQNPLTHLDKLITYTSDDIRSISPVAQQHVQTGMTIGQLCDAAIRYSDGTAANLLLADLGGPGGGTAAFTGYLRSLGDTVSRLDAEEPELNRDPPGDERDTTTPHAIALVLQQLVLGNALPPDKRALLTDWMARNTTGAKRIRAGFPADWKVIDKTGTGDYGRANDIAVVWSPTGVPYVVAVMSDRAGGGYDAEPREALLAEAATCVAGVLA
Protocol: Two types of controls were used. […] In control 2, the BlaC mixture was substituted with the assay buffer. This mixture was incubated for 30 minutes at room temperature without shaking. […] Data were analysed using ActivityBase (IDBS).

SMILES	pIC50 BlaC
CC(N)C(=O)NC1CCN(c2ccc(N3CCCC3)cc2C#N)C1 (stereo not shown) [Compound 39]	< 4.0
COc1ccc(CN2C(=O)C(=O)c3cc(Br)cc(C)c32)cc1OC [Compound 17]	< 4.0
NC(=O)OCC1=C(C(=O)O)N2C(=O)C(NC(=O)C(=CS(=O)(=O)CCc3ccc(O)c(O)c3)c3csc(N)n3)C2SC1 (stereo not shown) [Compound 20]	7.72

same assay, conditions: pIC50 BlaC, Table S5 HTS hits; 30 minute inhibitor pre-incubation; two independent repeats

SMILES	IC50 [nM]
O=c1c2cc(Cl)c(Cl)cc2sn1CCO [Compound 15]	427
CCOc1ccc(CN2C(=O)C(=O)c3cc(Br)cc(C)c32)cc1OC [Compound 16]	36300

target: T1, LdtMt2; assay: not given; conditions: 1 μM LdtMt2, denaturing acidic conditions

SMILES	covalent modification of LdtMt2 (adduct observed by SPE-MS)
N#C[s+]1c2ccccc2c2ccccc21.O=S(=O)([O-])C(F)(F)F [Compound 45, reference compound]	did not modify LdtMt2

target: T1, LdtMt2; assay: biochemical; assay type: binding; parameters: made in house; host or cells: E. coli; conditions: not given; remark: another data set of the same source
Protocol: LdtMt2 (5 μM) was incubated with the inhibitor (500 μM) in assay buffer (50 mM tris pH 7.5) for 30 minutes at room temperature in 96-well white PCR plates (25 μL final volume, Starlab). SYPRO Orange (final concentration 6×, according to manufacturer's definition, Invitrogen) was then added and the plate was sealed using a transparent plastic film (Polyolefin StarSeal, Starlab). Fluorescence was monitored (with λex = 492 nm and λem = 610 nm) using a CFX96 Touch Real-Time PCR Detection System (Bio-Rad), while the temperature was increased from 20 to 95 °C in increments of 0.2 °C. Melting temperatures (Tms) were determined using the CFX Maestro Software (Bio-Rad).

SMILES	ΔTm: difference in melting point of LdtMt2 relative to unreacted LdtMt2 (43.8 °C)
CC(N)C(=O)NC1CCN(c2ccc(N3CCCC3)cc2C#N)C1 (stereo not shown) [Compound 39]	-0.7
COc1ccc(CN2C(=O)C(=O)c3cc(Br)cc(C)c32)cc1OC [Compound 17]	+3.0
NC(=O)OCC1=C(C(=O)O)N2C(=O)C(NC(=O)C(=CS(=O)(=O)CCc3ccc(O)c(O)c3)c3csc(N)n3)C2SC1 (stereo not shown) [Compound 20]	-1.1

same assay, conditions: 5 µM LdtMt2, 500 µM inhibitor, SYPRO Orange, 50 mM Tris pH 7.5

SMILES	Tm: melting point of LdtMt2 after pre-incubation with the compound [°C]
O=c1c2cc(Cl)c(Cl)cc2sn1CCO [Compound 15]	43.5 ± 0.09
CCOc1ccc(CN2C(=O)C(=O)c3cc(Br)cc(C)c32)cc1OC [Compound 16]	46.8 ± 0.00

same assay, conditions: pH 7.5; in °C (unit assumed)

SMILES	Tm: melting point of LdtMt2 after pre-incubation with the compound
CC(N)C(=O)NC1CCN(c2ccc(N3CCCC3)cc2C#N)C1 (stereo not shown) [Compound 39]	43.1 ± 0.10
COc1ccc(CN2C(=O)C(=O)c3cc(Br)cc(C)c32)cc1OC [Compound 17]	46.8 ± 0.00
NC(=O)OCC1=C(C(=O)O)N2C(=O)C(NC(=O)C(=CS(=O)(=O)CCc3ccc(O)c(O)c3)c3csc(N)n3)C2SC1 (stereo not shown) [Compound 20]	42.7 ± 0.25

same assay, conditions: read-out: ΔTm: difference in melting point of LdtMt2 relative to unreacted LdtMt2 (43.8 °C)

SMILES	ΔTm at 500 µM [°C]
O=c1c2cc(Cl)c(Cl)cc2sn1CCO [Compound 15]	-0.3
CCOc1ccc(CN2C(=O)C(=O)c3cc(Br)cc(C)c32)cc1OC [Compound 16]	3

system: M. tuberculosis (strain H37Rv) growth in THP1 cells; assay: Intracellular assay: Mtb H37Rv-Luc in THP-1 macrophages; assay type: cell-based, Mycobacterium tuberculosis; conditions: 5 days, extrapolated from dose-response curve

SMILES	MIC50 intracellular
CC(N)C(=O)NC1CCN(c2ccc(N3CCCC3)cc2C#N)C1 (stereo not shown) [Compound 39]	28.8 ± 0.0 µM and < 50 µM
NC(=O)OCC1=C(C(=O)O)N2C(=O)C(NC(=O)C(=CS(=O)(=O)CCc3ccc(O)c(O)c3)c3csc(N)n3)C2SC1 (stereo not shown) [Compound 20]	38.9 ± 1.8 µM and < 50 µM

system: HepG2 cells; assay: HepG2 cytotoxicity assay (CellTiter Glo); assay type: cell-based; conditions: 48 h, ATP read-out
Protocol: Solutions of the test compounds (250 nL per well; 11 serial dilutions of 1/3 with starting concentration 100 μM) were dispensed in tissue-culture treated black clear-bottomed 384-well plates (Greiner, cat. no. 781091) with an Echo 555 instrument. 25 μL of HepG2 (ATCC HB-8065) cells (∼3000 cells per well) grown to confluency in Eagle's Minimal Essential Medium (MEM) supplemented with 10% (v/v) heat-inactivated FBS, 1% (v/v) non-essential amino acids (NEAA), and 1% (v/v) penicillin/streptomycin were added to each well. Plates were incubated at 37 °C with 20% O2 and 5% CO2 for 48 h. The plates were then equilibrated to room temperature. ATP levels, measured with CellTiter Glo kit (Promega), were used as cell viability read-out. 25 μL of CellTiter Glo substrate dissolved in the buffer was added to each well. Plates were incubated at room temperature for 10 min and read on ViewLux (PerkinElmer) […].

SMILES	IC50 [nM]
CC(N)C(=O)NC1CCN(c2ccc(N3CCCC3)cc2C#N)C1 (stereo not shown) [Compound 39]	> 100000
COc1ccc(CN2C(=O)C(=O)c3cc(Br)cc(C)c32)cc1OC [Compound 17]	53500 ± 6700
NC(=O)OCC1=C(C(=O)O)N2C(=O)C(NC(=O)C(=CS(=O)(=O)CCc3ccc(O)c(O)c3)c3csc(N)n3)C2SC1 (stereo not shown) [Compound 20]	> 100000

same assay, conditions: Homo sapiens, HepG2; 48 h, ATP read-out

SMILES	IC50 [nM]
O=c1c2cc(Cl)c(Cl)cc2sn1CCO [Compound 15]	9550 ± 220

target: T1, LdtMt2; assay: Jump dilution assay (reversibility, koff); assay type: biochemical; parameters: made in house; host or cells: E. coli; conditions: read-out: koff (off rate of complex with LdtMt2)
Protocol: LdtMt2 (10 μM final concentration) was incubated with the inhibitor (100 μM final concentration) in the assay buffer (50 mM HEPES, pH 7.2, 0.01% (v/v) Triton X-100) for 2 hours at room temperature, then serially diluted 1000× with assay buffer (final LdtMt2 concentration 10 nM). 20 μL of the diluted mixture was added to a black polystyrene, flat-bottomed 384-well μ-clear plate (clear bottomed, Greiner Bio-One, part number 781096). Probe 2 (final concentration 15 μM) was added using a MultiDrop Combi dispenser (ThermoFisher Scientific). Fluorescence was measured using a PHERAstar plate reader (BMG Labtech) with λex = 480 nm and λem = 520 nm. Readings were taken every 15 s for a period of 5 minutes, using bottom optic measurements. The off rate (koff) was determined using eqn (7).7 [drawing 3] where, P = formed product; Vs = velocity of no-inhibitor control; V0 = velocity of no-enzyme control, and P0 = initial fluorescence.
The half-life of the enzyme–inhibitor complex (t1/2) was calculated using eqn (8).8 [drawing 4]

SMILES	koff [s⁻¹]
CCOc1ccc(CN2C(=O)C(=O)c3cc(Br)cc(C)c32)cc1OC [Compound 16]	0.0286

system: M. tuberculosis (strain H37Rv); assay: Extracellular assay: M. tuberculosis H37Rv in medium under replicating conditions; assay type: cell-based, Mycobacterium tuberculosis; conditions: not given

SMILES	MIC50 [µM]
CC(N)C(=O)NC1CCN(c2ccc(N3CCCC3)cc2C#N)C1 (stereo not shown) [Compound 39]	> 100
COc1ccc(CN2C(=O)C(=O)c3cc(Br)cc(C)c32)cc1OC [Compound 17]	> 100
NC(=O)OCC1=C(C(=O)O)N2C(=O)C(NC(=O)C(=CS(=O)(=O)CCc3ccc(O)c(O)c3)c3csc(N)n3)C2SC1 (stereo not shown) [Compound 20]	> 100

same assay, conditions: Mycobacterium tuberculosis

SMILES	MIC50 [µM]
O=c1c2cc(Cl)c(Cl)cc2sn1CCO [Compound 15]	> 100
